Results on 1 molecule are retold here after patent publication US11725015B2, “Macrocyclic compound and uses thereof” (President and Fellows of Harvard College, priority 2017, dated 2023).

Assay [1] has as its system α-SMA-positive CAFs in the FaDu subcutaneous model. Nature of the assay: Effect on α-SMA-positive CAFs in the FaDu subcutaneous model in mice (Test Example 19). In kind it is in vivo. The protocol:
A human squamous cell carcinoma of the head and neck (SCCHN) cell line FaDu, which had been cultured in an RPMI-1640 medium containing 10% FBS, and penicillin-streptomycin (culture medium), was adjusted to a concentration of 5×10^7 cells/mL with culture medium to prepare a cell suspension. The cell suspension was inoculated in a volume of 100 μL into a subcutaneous part of a right flank of nude mice, 6 weeks of ages (CAnN.Cg-Foxnlnu/CrlCrlj, female, Charles River Laboratories Japan, Inc.). Ten days after cell inoculation, the mice were grouped such that averages of the tumor volumes were substantially equal among the groups. The experiment was conducted on groups each consisting of 5 mice. Each test compound was dissolved in DMSO and a solution was stored in the freezer before use. Immediately before the administration, the stock solution was diluted with saline. The test compound in saline was intravenously administered at 20 μg/kg, […]. Two days or 5 days after the single administration, tumor samples were collected and fixed with IHC Zinc Fixative (BD Pharmingen) at 4° C. for 24 hours. Paraffin-embedded tissues were sectioned (3 μm), mounted on positively charged slides, and air-dried. Sections were deparaffinized, conditioned and the antigens were retrieved using microwave with 1 mM EDTA at pH 6.0. Sections were blocked with 1% of BSA in TBS. Mouse anti-α-SMA monoclonal antibody conjugated with alkaline phosphatase (clone 1A4, Sigma) was applied at 5 μg/mL. Sections were incubated with the antibody for 2.5 hr. […] The area of α-SMA-positive region in the whole tumor was quantified by counting the α-SMA-positive objects using inform 2 software (PerkinElmer Inc.) Area of the tumor region was measured by assessing the hematoxylin-staining area using inform 2 software (PerkinElmer Inc.). […] A suppression rate of the α-SMA-positive area of the test compound-dosing group was calculated with the below formula: α-SMA ratio=α-SMA area of the test compound-dosing group/α-SMA area of the non-treat group

Assay [2] concerns KPL-4 subcutaneous xenograft. Briefly: Antitumor effects in the KPL-4 xenograft model in mice as monotherapy. Type of assay: in vivo. On the procedure:
A human HER-2 positive breast cancer cell line KPL-4, which had been cultured in a DMEM containing 10% FBS, and penicillin-streptomycin, was adjusted to a concentration of 1×10^8 cells/mL with Hanks' Balanced Salt Solution to prepare a cell suspension. The cell suspension was inoculated in a volume of 100 μL into a subcutaneous part of a right flank of nude mice, 8 weeks of ages (CAnN.Cg-Foxnlnu/CrlCrlj, female, Charles River Laboratories Japan Inc.). Eleven days after cell inoculation (Day 1), the shortest diameter and the longest diameter of a tumor in each mouse were measured by using an electronic digital caliper (Digimatic™ caliper, Mitutoyo Corporation), so as to calculate the volume of the tumor in accordance with the following calculation formulae: Tumor volume (mm^3)=Longest diameter (mm)×Shortest diameter (mm)×Shortest diameter (mm)/2 Relative tumor volume (RTV)=Tumor volume (day X)/Tumor volume (the first day) Relative body weight (RBW)=Body weight (day X)/Body weight (the first day)
On the basis of the volumes of tumors obtained on Day 1, the mice were grouped such that averages of the tumor volumes were substantially equal among the groups. The experiment was conducted on groups each consisting of six mice. The test compound was dissolved in DMSO and a solution was stored in the freezer before use. Immediately before the administration, the stock solution was diluted with saline. The test compound in saline was intravenously once-weekly administered at 20 μg/kg, 60 μg/kg, or 180 μg/kg for 2 weeks (on Day 1 and Day 8).

For assay [3], the system named is FaDu subcutaneous xenograft. Nature of the assay: Antitumor effects in FaDu subcutaneous xenograft model in combination with cetuximab in mice, single dose (Test Example 21). Type of assay: in vivo. The settings on record: single dose Day 1. The protocol:
A human squamous cell carcinoma of the head and neck (SCCHN) cell line FaDu, which had been cultured in an RPMI-1640 medium containing 10% FBS, and penicillin-streptomycin, was adjusted to a concentration of 5×10^7 cells/mL with Hanks' Balanced Salt Solution to prepare a cell suspension. The cell suspension was inoculated in a volume of 100 μL into a subcutaneous part of a right flank of athymic mice (CAnN.Cg-Foxnlnu/CrlCrlj, female, 7 weeks old, Charles River Japan Inc.). Ten days after cell inoculation (Day 1), the length and the width of a tumor in each mouse were measured by using an electronic digital caliper (Mitutoyo Corporation), so as to calculate the volume of the tumor in accordance with the following calculation formula: Tumor volume (mm^3)=Longest diameter (mm)×Shortest diameter (mm)×Shortest diameter (mm)/2 Relative tumor volume (RTV)=Tumor volume (day X)/Tumor volume (the first day)
On the basis of TV, the mice were randomly grouped (Day 1). Each group was consisted in six mice. Compound (1) was dissolved in DMSO and a solution was stored in the freezer before use.

In assay [4] the test system is human breast cancer cell line MDA-MB231. Briefly: MDA-MB231 growth inhibition assay. In kind it is cell-based. To be noted: 3 days incubation, CellTiter-Glo. On the procedure: In this assay, the growth inhibitory activity of test compounds in a human breast cancer cell line MDA-MB231 was measured. MDA-MB231 cells were maintained in Dulbecco's Modified Eagle's medium (Wako Pure Chemical Industries, Ltd., 044-29765) medium containing 10% fetal bovine serum (FBS: Nichirei, 12D168), and penicillin and streptomycin in a 5% CO2 incubator (37° C.). To each well of a 96 well plate (Becton, Dickinson and Company, 353219), 75 μL of MDA-MB231 cell suspension adjusted to a concentration of 4×10^4 cells/mL with the culture medium was added, and the cells were incubated overnight in a 5% CO2 incubator (37° C.). On the next day, 25 μL of Compound (1) or Halichondrin B in three-fold dilution series suspended in the culture medium was added to each well, and the resultant was incubated for 3 days in a 5% CO2 incubator (37° C.). Then, cell viability was determined by CellTiter-Glo® Luminescent Cell Viability Assay (Promega) with EnVision 2103 Multilabel Reader (Perkin-Elmer, Wellesley, Mass.). Value of the wells containing cells without adding the test compounds was defined as 100% and the value of the wells containing no cells was defined as 0%. The concentration of the test compound necessary for inhibiting the cell growth by 50% (i.e., an IC50 value) was calculated, and shown in Table 2.

For `C=C1C[C@@H]2CC[C@@]34C[C@H]5O[C@H]6[C@@H](O3)[C@H]3O[C@H](CC[C@@H]3O[C@H]6C5O4)CC(=O)O[C@@H]3[C@@H](C)[C@@H]4O[C@@H]5C[C@]6(C[C@@H]7O[C@]8(C[C@H](C)[C@@H]9O[C@H](CN)[C@H](O)C[C@@H]9O8)C[C@H](C)[C@@H]7O6)O[C@@H]5C[C@@H]4O[C@H]3C[C@H]3O[C@@H](CC[C@@H]1O2)C[C@@H](C)C3=C` [Compound (1)], the α-SMA positive area entry is listed as “significantly reduced the α-SMA positive area” in assay [1] (single administration 180 μg/kg, Day 3); “significantly reduced the α-SMA positive area” in assay [1] (single administration 180 μg/kg, Day 6); “significantly reduced the α-SMA positive area” in assay [1] (single administration 60 m/kg, Day 3). The antitumor effect entry in assay [2] (60 μg/kg intravenously on Day 1 and Day 8) was “tumor regression was observed”; in assay [2] (180 μg/kg intravenously on Day 1 and Day 8), “tumor regression was observed”. Besides, in assay [2] (180 μg/kg, on Day 15), the “eradication of xenograft tumors” value is “completely eradicated the xenograft tumors in all mice”. In addition, the entries for the “antitumor efficacy with CTX” value in assay [3] (180 μg/kg + CTX 10 mg/kg), in assay [3] (20 mg/kg + CTX 10 mg/kg) and in assay [3] (60 mg/kg + CTX 10 mg/kg) were “stronger than that of CTX monotherapy with tumor regression”, “tended to be stronger than that of CTX monotherapy” and “stronger than that of CTX monotherapy with tumor regression”, respectively. The half-maximal inhibitory concentration (IC50) in assay [4] was determined as 0.109 nM.
